Data on 5 molecules can be found in paper PMC12973313 (Chemical Science, 2026).

Values after ≈ are worked out from the molar mass of the structure shown. Values joined by “and” are separate entries in the source; they are usually repeats but may differ in a detail not shown here. Identical values can stand only once. Like-named read-outs stand apart in the source and are kept apart here. Where only a bound is given, the exact number is not on record here.

One data set concerns RPE-1 cells. In words: GI50 determination, SRB assay. The data set is classed as cell-based, human. Conditions: read-out: Mean GI50 (μM) RPE-1 SRB Assays. On the procedure: (§1) GI50 determination assays
(§2) Cell culture: The RPE-1 retinal pigment epithelial, A2780 human ovarian carcinoma, and A2780 CisR cisplatin resistant human ovarian carcinoma cell lines were donated with thanks from the Institute of Cancer Research. The A2780 and A2780 CisR cell lines were cultured in IMDM supplemented with 10 % FBS at 37 °C and 5 % CO2, while the RPE-1 cell line was cultured in a 1:1 mixture of Dulbecco's Modified Eagle Medium and Ham’s F-12 Nutrient Mixture (DMEM/F-12) at 37 °C and 5 % CO2.
(§3) SRB assay: Cells were seeded into 96-well plates at 800 cells per well/cpw (A2780), 1600 cpw (A2780 CisR) or 400 cpw (RPE-1) in cell culture medium and cultured for 48 hours followed by addition of each compound over an eight-point concentration range (each concentration in triplicate). Plates were then cultured for a further 96 hours, after which the cell culture […]
(§4) medium was removed from each well and the cells fixed with addition of 70 µL/well of 10 % (w/v) trichloroacetic acid (TCA) in distilled water followed by incubation for 30 minutes at RT.
(§5) Each plate was then washed with distilled water five times before addition of 70 µL SRB dye (0.4 % (w/v) SRB dye (ThermoFisher Scientific, USA) solubilised in 1 % (v/v) acetic acid/ dH2O) and incubat ed for 30 minutes at RT, followed by washing three times with 1 % (v/v) acetic acid and drying in a 37 °C oven overnight. Once dry, 100 μl of 10 mM Tris -base (ThermoFisher Scientific, USA) was added to each well and plates put on a microplate shaker for 10 minutes at 200 rpm to solubilize the dye. Absorbance values were then read at wavelength 490 nm on a Victor X4 multi-label plate reader (PerkinElmer Life Sciences, USA), data analysed using Microsoft Excel and graphs produced using GraphPad Prism 9.0 and the GI50 value calculated.
(§6) Solutions and compo und preparation: All solvents and starting materials were purchased from known chemical suppliers. Compound stock solutions were prepared in DMSO. Buffer […]
(§7) 500 mM. Buffer B consisted of Na2SO4 (167 mM) and NaOAc (5 mM) with a pH of 5.5 and an ionic strength of 500 mM.
(§8) Vesicle formation: Giant unilamellar Vesicles (GUVS) were prepared through the electro formation method using a Nanion VesiclePrepPro. A solution of 1,2-diphytanoyl-sn-glycero-3-phosphocholine (DPhPC) (10 mM) with 10 % cholesterol in chloroform (20 µL) was deposited onto an ITO coated glass surface (surface coated glass slide) and allowed to evaporate to create a dehydrated thin lipid film. A greased O-ring was then placed around the dehydrated lipid film to create a seal. This volume was then filled with a sucrose solution (275 µL, 200 mM) and then sealed with a second ITO coated glass slide. An AC current (3 V/5 Hz) was then applied. After 2 hrs, the voltage and frequency were reduced in steps over 30 mins to 1.6 V/1 Hz and held for 1 hr before being reduced to 0 V/0 Hz over a further 30 min […]
(§9) Patch clamp measurements: Experiments were performed using a Port-a-Patch system (Nanion Technologies) with borosilicate glass chips that contain an aperture diameter of approximately 1 µm. Buffer A (5 µL) was placed on the underside of the chip over the aperture, The chip was then placed into the port-a-patch system. Buffer A (15 µL) was then added to the top of the chip and 5 µL of the GUV stock solution added. The GUVS were the positioned over the aperture in the chip by application of negative pressure (-30 mbar).
(§10) When a GUV is positioned over the aperture in the chip, it bursts, leaving a planar bilayer as a seal. The negative pressure is then removed, leaving the planar bilayer in place over the aperture. The external buffer A was the exchanged with buffer B, through four simultaneous […]
(§11) buffer exchanges (4 x 15 µL). […]
(§12) = 30 s, to give a final experimental concentration of 0.1 – 1 mM as appropriate. The number of sweeps was set to 1000, the sweep interval to 0.00 s, sample interval to 1.00 ms and the protocol was run for a total of 5 mins. Each experiment was repeated a minimum of three time to ensure reproducibility.
(The SRB assay estimates cell density from bound dye.)

Data set [1] deals with A2780 CisR cisplatin resistant ovarian cancer cells. Put plainly: GI50 determination, SRB assay. Type of data set: cell-based, human. Conditions: read-out: Mean GI50 (μM) A2780 CisR SRB Assays. On the procedure: as §1, §2, §3, §4, §5, §6, §7, §8, §9, §10, §11, §12
Data set [2] is described as follows: Dynamic light scattering, H2O 5% EtOH. Type of data set: physicochemical. Conditions: 5.56 mM, 298 K, after annealing. The source says: The size and stability of those self-associated structures present were confirmed through a combination of dynamic light scattering (DLS) and zeta potential measurements respectively (Table 2). […] Therefore, the presence of the alkyl/aromatic R-groups within the amino acid appended SSA are confirmed to increase higher order self-associated aggregate stability.
Table S9 - The peak maxima and polydispersity indices obtained for 1, 3, 5, 7, 9, and 1:1 enantiomeric mixtures of 3 + 5 and 7 + 9 obtained at 5.56 mM in H2O/5 % EtOH. An annealing process was applied in which the samples were heated to approximately 313 K before being cooled down to a measurement temperature of 298 K. The errors given are the standard error of the average.
Compound Repeat Peak maxima (nm) Polydispersity index

In the next data set the test system is S. aureus USA300. In words: MIC assay. Type of data set: cell-based. Conditions: Staphylococcus aureus. On the procedure: Next generation SSAs 3, 5, 7, and 9 were specifically designed to increase the activity of SSAs against both drug susceptible and resistant S. aureus and ovarian cancer cells. […] These strains include: (i) USA300, a common clinically relevant, methicillin resistant strain;[47] […]
Section S3: Biological methods […]
Preparation of bacterial plates : Sterile TSB agar plates were streaked using the desired […]
Preparation of inoculum: An initial culture was made up by inoculating TSB (5 mL) with 3 single colonies of the desired bacteria under sterile conditions and incubated at 37 °C overnight. The optical density at 600 nm (OD 600) was adjusted using sterile distilled H 2O (dH2O) to equal ~1 x 10^6 bacteria/mL.
Preparation of 96 -well microplate : A solution of each compound in H2O/5 % EtOH was made […]
The compound solution (200 […]
µL) was added to and diluted 50:50 down the plate. The bacterial suspension (100 µL) was dispensed into each well under sterile conditions. […]

Data set [3] can be described thus: Surface tension (pendant drop) / CAC determination, H2O 5% EtOH. Type of data set: physicochemical. Conditions: for Surface tension (mN m^-1): H2O 5% EtOH, at limit of SSA solubility = 5.56 mM; for CAC: H2O/5 % EtOH, above the limit of solubility. The source says:
Here, the CAC is defined as the concentration at which any additional SSA added to a solution will result in the production of high-order self-associated species. […] To determine CAC, we used the pendant drop method to elucidate the surface tension of H2O 5% EtOH solutions of 1, 3, 5, 7, 9, and 1 : 1 SSA enantiomeric mixtures at 291 K (Table 2).

[4] abbreviates: USA300, 15 h, total molecular concentration, after 900 min, read-out: MIC USA300.
Where [5] appears, read: USA300, lowest concentration with no visible growth, read-out: MIC (mM) S. aureus USA 300.

As for `O=C(Nc1ccc(C(F)(F)F)cc1)N[C@H](Cc1ccccc1)C(=O)O` [SSA 9], the GI50 – broadly, the concentration giving 50% growth inhibition – in the data set on RPE-1 cells (Homo sapiens, RPE-1, 96 h) was > 375 µM; in data set [1] (Homo sapiens, A2780cisR, 96 h), 197 µM. In addition, the “dH (nm), DLS intensity distribution peak maxima” value (“dH (nm)” below) in data set [2] was 180.99 (± 53.12) nm and 181 nm. In addition, the MIC with S. aureus USA300 (setting [4]) and in the data set on S. aureus USA300 (setting [5]) was 0.087 mM (≈ 30.7 µg/mL) in each case. The “Surface tension (mN m^-1)” value in data set [3] was 39.64 mN m^−1 and 39.64 ^c mN m^−1. Further, the CAC in data set [3] is > 5.56 mM.

As to `O=C(O)CNC(=O)Nc1ccc(C(F)(F)F)cc1` [SSA 1], the GI50 came out at 296 µM in the data set with RPE-1 cells (Homo sapiens, RPE-1, 96 h) and 367 µM in data set [1] (Homo sapiens, A2780cisR, 96 h). The MIC in the data set on S. aureus USA300 (setting [4]) and in the data set with S. aureus USA300 (setting [5]) was > 2.78 mM in each case.

For the molecule `CC(C)CC(NC(=O)Nc1ccc(C(F)(F)F)cc1)C(=O)O` (stereo not shown) [SSA 5], the GI50 with RPE-1 cells (96 hours) is > 375 µM; in data set [1] (96 hours), 498 µM. In addition, in data set [2] (listed as 5), the “dH (nm)” value was 174.05 (± 13.00) nm and 174 nm. Also, the “Surface tension (mN m^-1)” value in data set [3] (listed as 5) was 40.92 mN m^−1 and 40.92 ^c mN m^−1.

Turning to `O=C(Nc1ccc(C(F)(F)F)cc1)N[C@@H](Cc1ccccc1)C(=O)O` [SSA 7], the GI50 is > 375 µM with RPE-1 cells (Homo sapiens, RPE-1, 96 h) and 356 µM in data set [1] (Homo sapiens, A2780cisR, 96 h). The “dH (nm)” value in data set [2] was 166.62 (± 19.14) nm and 167 nm. Moreover, the minimum inhibitory concentration (MIC) in the data set on S. aureus USA300 (setting [4]) and in the data set with S. aureus USA300 (setting [5]) was 0.087 mM (≈ 30.7 µg/mL) throughout. The “Surface tension (mN m^-1)” value in data set [3] was 39.83 mN m^−1 and 39.83 ^c mN m^−1. Moreover, the CAC in data set [3] is > 5.56 mM.

In the case of `CC(C)CC(NC(=O)Nc1ccc(C(F)(F)F)cc1)C(=O)O` (stereo not shown) [SSA 3], the GI50 with RPE-1 cells (Homo sapiens, RPE-1, 96 h) is > 500 µM; in data set [1] (Homo sapiens, A2780cisR, 96 h), 276 µM. Besides, the “dH (nm)” value in data set [2] (listed as 3) is 265.65 (± 19.29) nm and 266 nm. In addition, in the data set with S. aureus USA300 (setting [4]), the MIC – broadly, the lowest concentration that inhibits growth of the organism – was > 2.78 mM. Moreover, in data set [3] (listed as 3), the “Surface tension (mN m^-1)” value is 40.92 mN m^−1 and 40.92 ^c mN m^−1. Besides, the CAC in data set [3] is > 5.56 mM.
